The results in this text go back to patent US12161686B2, “Natural preservatives and antimicrobial agents, including compositions thereof” (Unigen, Inc., priority 2015, dated 2024).

Format in all cases: cell-based
Assay [1] has as its system Streptococcus pyogenes. As to the kind of experiment: Minimum Inhibitory Concentration Method (MIC/MBC).
In assay [2] the test system is Candida albicans (ATCC 10231). As to the kind of experiment: Minimum Inhibitory Concentration Method (MIC/MBC), broth dilution; FIC index. As for the experimental part: (§1) Minimum Inhibitory Concentration against bacterial S. aureus, P. aeruginosa, E. coli, and fungi A. brasiliensis and C. albicans were determined for Albizia amara seeds extract and the active marker compound bundmunchiamine C. The Minimum Inhibitory Concentration Method (MIC) is carried out following the general microbiological protocol to measure the lowest level of an antimicrobial agent that can inhibit microbial proliferation in liquid. Test microorganisms are prepared in liquid culture medium for bacteria or on agar for fungi. Suspensions of test microorganisms are standardized by dilution in appropriate broth solution, usually Mueller-Hinton broth. […]
(§2) In vitro antifungal combinations are commonly evaluated on the basis of the fractional inhibitory concentration (FIC) index, which represents the sum of the FIC of each substance tested. […]
(§3) The fractional inhibitory concentration (FIC) was calculated with the equation: FIC of drug A (FIC A)=MIC of drug A in combination/MIC of drug A alone, and FIC of drug B (FIC B)=MIC of drug B in combination/MIC of drug B alone]. The FIC Index (FICI), calculated as the sum of each FIC (YFIC). The calculated index of 1A:1M and 1A:3M against C. albicans were 0.187 and 0.292. […]
Background: Broth dilution looks for growth in wells or tubes with falling amounts of substance.

Assay [3] has as its system Aspergillus brasiliensis (ATCC 16404). Described as above. As for the experimental part: as §1, §2, §3
Assay [4] relates to Pseudomonas aeruginosa (ATCC 9027). In words: Minimum Inhibitory Concentration Method (MIC/MBC), broth dilution. As for the experimental part: (§4) Minimum Inhibitory Concentration against bacterial S. aureus, P. aeruginosa, E. coli, and fungi A. brasiliensis and C. albicans were determined for Albizia amara seeds extract and the active marker compound bundmunchiamine C. The Minimum Inhibitory Concentration Method (MIC) is carried out following the general microbiological protocol to measure the lowest level of an antimicrobial agent that can inhibit microbial proliferation in liquid. Test microorganisms are prepared in liquid culture medium for bacteria or on agar for fungi. Suspensions of test microorganisms are standardized by dilution in appropriate broth solution, usually Mueller-Hinton broth. The test substance is prepared by conducting several serial 1:1 dilutions in a 96-well microtiter plate or in small test tubes, through Mueller-Hinton broth or other appropriate medium. All wells or tubes containing diluted test substances are inoculated with test microorganisms, individually, resulting in one additional and final dilution of the product in all test vessels. The microtiter plate or test tubes are incubated for 18-24 hours. After the incubation period, observations are made to determine the minimum concentration (MIC) which is the lowest concentration of test substance in a well where no turbidity (indicative of test microorganism growth) is observed and minimum bactericidal concentration (MBC).
(§5) The Albizia amara seeds extract RN368-31-MIX and budmunchiamine C were tested against five microorganisms required for category 2 including Staphylococcus aureus (ATCC 6538), Escherichia coli (ATCC 8739), Pseudomonas aeruginosa (ATCC 9027), Candida albicans (ATCC 10231), Aspergillus brasiliensis (ATCC 16404).

Assay [5] relates to Escherichia coli (ATCC 8739). The assay is described as above. Here is the method: as §4, §5
The subject of assay [6] is Staphylococcus aureus (ATCC 6538). Described as above. Here is the method:
as §4, §5

Bounds are passed on as bounds.

On to budmunchiamine C, for which the “MIC Streptococcus pyogenes” value in assay [1] was less than 0.97 µg/mL. Further, the “MBC Candida albicans” value in assay [2] came out at 125 µg/mL. In addition, the “MIC Aspergillus brasiliensis” value in assay [3] is 125 µg/mL. In assay [4], the “MBC Pseudomonas aeruginosa” value was 62.5 µg/mL and the “MIC Pseudomonas aeruginosa” value came to 62.5 µg/mL. The “MBC Escherichia coli” value in assay [5] came out at 31.25 µg/mL. Further, the “MIC Escherichia coli” value in assay [5] (neutral condition) amounted to 31.25 µg/mL. Further, in assay [6], the “MBC Staphylococcus aureus” value is 31.25 µg/mL and the “MIC Staphylococcus aureus” value was 31.25 µg/mL.
